Values quoted from earlier work as cited in patent US6432400B1, “Specific pancreatic lipase inhibitors and their applications” (Laboratoire Laphal (Laboratoire de Pharmacologie Appliquee), priority 1997, dated 2002).

Key:
pancreatic lipase = molecular target: T1, pancreatic lipase (Homo sapiens, UniProt P16233); conditions: 1 mol of THL/mol of enzyme
T1 sequence (P16233 17-465): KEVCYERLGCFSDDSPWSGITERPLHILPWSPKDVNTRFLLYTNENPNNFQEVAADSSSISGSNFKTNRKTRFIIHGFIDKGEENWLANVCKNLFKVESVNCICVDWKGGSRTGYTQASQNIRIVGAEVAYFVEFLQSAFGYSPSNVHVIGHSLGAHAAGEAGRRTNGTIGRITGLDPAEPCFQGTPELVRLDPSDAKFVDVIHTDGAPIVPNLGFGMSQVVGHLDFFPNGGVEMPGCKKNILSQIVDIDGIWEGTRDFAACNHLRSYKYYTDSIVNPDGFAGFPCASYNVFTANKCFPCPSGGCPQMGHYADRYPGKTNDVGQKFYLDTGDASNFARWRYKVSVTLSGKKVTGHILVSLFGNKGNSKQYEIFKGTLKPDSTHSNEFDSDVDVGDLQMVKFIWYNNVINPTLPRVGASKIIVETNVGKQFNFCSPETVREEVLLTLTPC

[1] = tested on: carboxylester lipase, gastric lipase and lipase stimulated by the bile salts in human milk; conditions: inhibits carboxylester lipase, gastric lipase and bile-salt-stimulated lipase of human milk

For `CCCCCCCCCCC[C@@H](C[C@@H]1OC(=O)[C@H]1CCCCCC)OC(=O)[C@H](CC(C)C)NC=O` [THL, tetrahydrolipstatin], the “inhibition of the lipolytic activity” value (pancreatic lipase) is listed as “complete inhibition” and the “specificity for pancreatic lipase” value [1] is listed as “not specific for pancreatic lipase”.
